# According to patent US5707648A, “Transparent liquid for encapsulated drug delivery” (LDS Technologies, Inc., priority 1995, dated 1998):
# Legend:
# plasma Factor VIII = assay: Plasma Factor VIII levels following administration of dDAVP (dDAVP Dog Study); type: in vivo, Male beagle dogs; details: dogs; capsules with 13, 43 and 125 μg dDAVP, dDAVP in dextrose, or s.c. 0.4 μg/kg
# Procedure: Male beagle dogs weighing 9-12 kg were used in all experiments. Prior to each study, all animals were fasted overnight but were allowed access to water ad libitum.
# Peroral administration: Enteric coated hard gelatin capsules, size 0el (0.78 ml) from [sequence], fill materials: 0.73 g of the drug delivery compositions containing:
# Subcutaneous administration: 4 μg dDAVP/ml composition, 0.4 μg dDAVP/kg animal (Table 6F).
# Plasma Factor VIII levels following administration of dDAVP was used as a pharmacodynamic response to the drug. Maximum response to dDAVP was determined by measuring plasma Factor VIII response levels following subcutaneous administration of dDAVP (Table 6F).
# For studies involving capsule administration, a single capsule was given to each animal in each study. Blood samples were taken immediately prior to dDAVP administration (t=0), and at various times thereafter. Plasma levels of Factor VIII were determined using commercially available kits.
# [1] = compared with AVP or LVP; cited from earlier work
# [2] = human, in vivo; cited from earlier work
# [3] = Chemical stability of calcitonin in the formulation; type: physicochemical; details: formulation of Table 7.1
# [4] = tested on: delta-class of opioid receptor; details: Vaughn et al. 1989; cited from earlier work
compound,measurement,setting,value
NC(=O)CC[C@@H]1NC(=O)[C@H](Cc2ccccc2)NC(=O)[C@H](Cc2ccc(O)cc2)NC(=O)CCSSC[C@@H](C(=O)N2CCC[C@H]2C(=O)N[C@H](CCCN=C(N)N)C(=O)NCC(N)=O)NC(=O)[C@H](CC(N)=O)NC1=O [desmopressin],response in plasma Factor VIII levels (in words),plasma Factor VIII,dose-dependent increase in plasma Factor VIII levels
same,pressor (vasoconstricting) activities,[1],lacks the pressor (vasoconstricting) activities of AVP or LVP
same,oral bioavailability,[2],0.1-0.2%
calcitonin,chemical stability of calcitonin in the formulation,[3],chemically stable in this formulation for at least two months
"[D-Pen^2,5, PCl-Phe^4 ]-enkephalin",interaction with the delta-class of opioid receptor,[4],interacts selectively with the delta-class of opioid receptor
